# Several values for one entry are separate records, joined by “and”; a condition that tells them apart may be missing. Equal values may be shown once.
# Key:
# [1] = target: AoraGOBP1; experiment: Fluorescence competitive binding assay (1-NPN probe) with rAoraGOBP1; set-up: species or system Adoxophyes orana; conditions: for Ki: competitive displacement of 1-NPN, 20 mM Tris-HCl pH 7.4, mean ± S.E.M., read-out: Ki (μM) GOBP1; for Binding affinity to AoraGOBP1 (in words): fluorescence competitive binding
# Method: (§1) The fluorescent competitive binding assays were conducted using an F-2700 spectrophotofluorometer (Hitachi, Tokyo, Japan) to evaluate the binding affinities of AoraGOBP1 and AoraGOBP2 to sex pheromones, and HPVs. […] With the increase of 1 − NPN concentration, the change in fluorescence intensity decreased and eventually stabilized, and the data were recorded. Binding dissociation constant K1−NPN (Kd) of 1 − NPN to rAoraGOBPs were determined. Then, 2 mL protein solution containing 2 μM rAoraGOBPs was titrated with 1 μM of each ligand to a final concentration of 18 µM. The fluorescence intensity was measured and recorded after a 2 min reaction. The Ki for competitive binding of each ligand to rAoraGOBPs using the formula Ki = [IC50]/(1 + [1 − NPN]/K1−NPN), where IC50 is the ligand concentration corresponding to 50% displacement of 1 − NPN. Each assay was replicated three times biologically. The Kd and Ki are presented as mean ± S.E.M.
# [2] = target: AoraGOBP2; experiment: Fluorescence competitive binding assay (1-NPN probe) with rAoraGOBP2; set-up: species or system Adoxophyes orana; conditions: for Ki: competitive displacement of 1-NPN, 20 mM Tris-HCl pH 7.4, mean ± S.E.M., read-out: Ki (μM) GOBP2
# Method: as §1
# [3] = fluorescent probe titration, 2 μM protein, pH 7.4
Molecule,Ki ([1]; 2 μM protein) [µM],Ki ([2]; 2 μM protein),further results
CC(C)=CCCC(C)=CC=O (mixture of isomers) [Citral],11.7 ± 0.44,,
CCCCC/C=C\C=C\C(=O)OCC [Pear ester],5.08 ± 0.13,,
"CCCC/C=C\CCCCCCCCO [Z11-14:OH, (Z)-9-tetradecen-1-ol]",,1.21 µM and 1.24 µM,Binding affinity to AoraGOBP1 (in words) [1]: did not
"c1ccc(Nc2cccc3ccccc23)cc1 [1 − NPN, reference compound]",,,"Kd [1, 3]: 18.4 µM; Kd [2, 3]: 1.65 µM"
CC/C=C\CCOC(=O)CC(C)C [(Z)-3-Hexen-1-yl 3-methylbutanoate],6.21 ± 0.18,,
C=CC(O)CC (stereo not shown) [1-Penten-3-ol],10.2 ± 0.14,,
CC(C)C=O [Isobutyraldehyde],11.9 ± 0.41,,
CCOC(=O)C(C)CC (stereo not shown) [Ethyl 2-methylbutanoate],11.78 ± 0.08,,
CC(C)=CCC/C(C)=C/CC/C(C)=C/CO [Farnesol],,1.13 ± 0.02 µM,
CCCCCCCCCC=O [Decanal],0.78 ± 0.15,,
CCCCOC(=O)c1ccccc1C(=O)OCCCC [Dibutyl phthalate],10.27 ± 0.07,5.33 ± 0.04 µM,
"CCCC/C=C\CCCCCCCCOC(C)=O [Z9-14:Ac, (Z)-9-tetradecenyl acetate]",,6.46 ± 0.18 µM,Binding affinity to AoraGOBP1 (in words) [1]: did not; Binding affinity to AoraGOBP2 (in words) ([2]; fluorescence competitive binding): moderate binding affinity
COC(=O)c1ccccc1O [Methyl salicylate],4.41 ± 0.2,,
CCCCCCCCCCCCO [12:OH],,1.74 ± 0.03 µM,
"CCCC/C=C\CCCCCCCCO [Z9-14:OH, (Z)-9-tetradecen-1-ol]",,1.49 ± 0.01 µM,Binding affinity to AoraGOBP1 (in words) [1]: did not
Farnesene,,6.96 ± 0.32 µM,
